Where two headings read alike, the source gives them in different places. A value given as a limit tells only on which side of the number the result lay.

From patent US20250019374A1, “PROTEIN TYROSINE PHOSPHATASE INHIBITORS AND METHODS OF USE THEREOF” (Calico Life Sciences LLC, priority 2021, published 2025) come the findings set out here.

Assay [1] has as its target His tagged full-length PTPN1 protein (Homo sapiens (Human), UniProt P18031). Put plainly: PTPN1 Mobility Shift Assay (MSA). Format: biochemical. The note with it: enzyme 0.5 nM, substrate 2 μM. The method, then:
Example III-2: Mobility Shift Assay (MSA) Used to Determine Potency of PTPN1 Inhibitors
Compound activity was determined using in house His tagged full-length PTPN1 protein (SEQ ID NO: 3) in an in vitro enzymatic reaction. The enzymatic assay used to determine activity is a mobility shift assay using a LabChip EZ Reader by Caliper Life Sciences. The enzymatic reaction was carried out in assay buffer (50 mM HEPES pH 7.5, 1 mM EGTA, 10 mM EDTA, 0.01% Tween® 20, and 2 mM DTT). The compounds were dispensed on a white 384 well ProxiPlate™ (PerkinElmer Cat ^#6008289) plate using a Labcyte Echo® liquid handler at varying concentrations (12 point, 1:3 dilution). The enzyme (at 0.5 nM) was incubated with compound for 10 minutes at room temperature. Thereafter, the substrate (phosphorylated insulin receptor probe sequence: ((OG488)-(NH—CH2—CH2—O—CH2—CH2—O—CH2—CO)-T-R-D-I—(PY)-E-T-D-Y—Y—R—K—K—NH2) (SEQ ID NO: 2) was added at 2 μM to the plates and incubated for another 10 minutes at room temperature. Finally, a quench solution (water and 4-bromo-3-(2-oxo-2-propoxyethoxy)-5-(3-{[1-(phenylmethanesulfonyl)piperidin-4-yl]amino}phenyl)thiophene-2-carboxylic acid) was added to the plates, which were then run on the EZ Reader (excitation 488 nm, emission 530 nm) to measure % conversion (the amount of phosphorylated substrate which was de-phosphorylated by PTPN1). […] The % inhibition was then used to calculate the IC50 values.

Assay [2] has as its target His tagged PTPN2 (TC45) protein (Homo sapiens (Human), UniProt P17706). Briefly: PTPN2 Mobility Shift Assay (MSA). Format: biochemical. The note with it: for Dihydrobenzofuran or Indoline x-fold>potency biochemical: x-fold versus corresponding chromane comparator, PTPN2 MSA. On the procedure:
Example III-1: Mobility Shift Assay (MSA) Used to Determine Potency of PTPN2 Inhibitors
Compound activity was determined using in house His tagged PTPN2 (TC45) protein (SEQ ID NO: 1) in an in vitro enzymatic reaction. The enzymatic assay used to determine activity was a mobility shift assay using a LabChip EZ Reader by Caliper Life Sciences. The enzymatic reaction was carried out in assay buffer (50 mM HEPES pH 7.5, 1 mM EGTA, 10 mM EDTA, 0.01% Tween® 20, and 2 mM DTT). The compounds were dispensed on a white 384 well ProxiPlate™ (PerkinElmer Catalog #6008289) plate using the Labcyte Echo at varying concentrations (12 point, 1:3 dilution). The enzyme (at 0.5 nM) was incubated with compound for 10 minutes at room temperature. Thereafter, the substrate (phosphorylated insulin receptor probe sequence: ((OG488)-(NH—CH2—CH2—O—CH2—CH2—O—CH2—CO)-T-R-D-I—(PY)-E-T-D-Y—Y—R—K—K—NH2) (SEQ ID NO: 2) was added at 2 μM to the plates and incubated for another 10 minutes at room temperature. Finally, a quench solution (water and 4-bromo-3-(2-oxo-2-propoxyethoxy)-5-(3-{[1-(phenylmethanesulfonyl)piperidin-4-yl]amino}phenyl)thiophene-2-carboxylic acid) was added to the plates, which were then run on the EZ Reader (excitation 488 nm, emission 530 nm) to measure % conversion (the amount of phosphorylated substrate which was de-phosphorylated by PTPN2). […] The % inhibition was then used to calculate the IC50 values.

The test system of assay [3] is IFNγ-induced STAT1 phosphorylation (pSTAT1) in B16F10 cells. Put plainly: B16F10 Phospho-STAT1 HTRF proximal pharmacodynamic (PD) assay. The class given is cell-based, murine. The note with it: for EC50: B16-F10, B16F10 cells; for Dihydrobenzofuran or Indoline x-fold>potency cellular: x-fold versus corresponding chromane comparator, B16F10 pSTAT1. The method, then: Example III-3: B16F10 (Murine Melanoma Cells) Phospho-STAT1 HTRF Proximal Pharmacodynamic (PD) Assay
B16F10 cells were grown and maintained in high glucose DMEM (Gibco, Catalog^#11965-092, Dun Laoghaire Co Dublin) supplemented with 10% fetal bovine serum (Gibco, Catalog^#10082-139, Dun Laoghaire Co Dublin). The cells were pelleted and resuspended in high glucose DMEM without phenol red (Gibco, Catalog^#11054-020, Dun Laoghaire Co Dublin), supplemented with 10% fetal bovine serum and plated in a 384 well Corning plate (product^#3765, Corning, NY) at 11,000 cells per well in a volume of 20 μL. The cells were dosed with the compounds of interest using an Echo Liquid Handler (Beckman Coulter, Brea, CA) at 50 μM top dose with 3-fold dilutions down to 0.002679 μM for a 10-point dose response. The plate was incubated for 3 hours at 37° C. and subsequently treated with recombinant mouse IFNγ (R&D Systems, Catalog^#485-MI, Minneapolis, MN; 100 nM final concentration) for 10 minutes at 37° C. to induce STAT1 phosphorylation followed by 3.3 μM staurosporine treatment for 1 hour at 37° C. to terminate phosphorylation. Media was then aspirated and 20 μL of 1× lysis buffer/blocking reagent (Cisbio Phospho-STAT1 kit, part^# 63ADK026PEH, Bedford, MA) was added. The plate was placed on a plate shaker for 30 minutes at room temperature, sealed, and stored at −80° C. until needed. To thaw, the plate was placed on shaker at room temperature until completely thawed while the antibody master mix was made (1:40 Phospho-STAT1 Eu Cryptate antibody, 1:40 Phospho-STAT d2 antibody, with the detection buffer; Cisbio Phospho-STAT1 kit, part^#63ADK026PEH, Bedford, MA). The antibody master mix was then dispensed at 4 μL per well into a 384 ProxiPlate Plus (PerkinElmer, part^#6008289, Waltham, MA) and 16 μL of lysate was added from the Corning plate to the Proxiplate using a VIAFLO 384 (INTEGRA). The plate was incubated for 3 hours at room temperature and read on an EnVision® (Perkin Elmer) plate reader with laser excitation at 335 nm and emission at 665 nm. Dotmatics Studies (Bishop's Stortford, UK) was utilized to generate all dose-response curves and calculate EC50s and are shown in Table 2.

[4] abbreviates: Table 3, dihydrobenzofuran or indoline compound (X = O or NH).
Setting [5] is: 3 hours compound, 100 nM mouse IFNγ 10 minutes, read-out: B16F10 IFNγ Induced pSTAT1 EC50.
Where [6] appears, read: Mus musculus, Table 3, dihydrobenzofuran or indoline compound (X = O or NH), read-out: pSTAT1 EC50.

His tagged PTPN2 (TC45) protein, sequence (P17706 other isoform, or with tags, fused parts or gaps): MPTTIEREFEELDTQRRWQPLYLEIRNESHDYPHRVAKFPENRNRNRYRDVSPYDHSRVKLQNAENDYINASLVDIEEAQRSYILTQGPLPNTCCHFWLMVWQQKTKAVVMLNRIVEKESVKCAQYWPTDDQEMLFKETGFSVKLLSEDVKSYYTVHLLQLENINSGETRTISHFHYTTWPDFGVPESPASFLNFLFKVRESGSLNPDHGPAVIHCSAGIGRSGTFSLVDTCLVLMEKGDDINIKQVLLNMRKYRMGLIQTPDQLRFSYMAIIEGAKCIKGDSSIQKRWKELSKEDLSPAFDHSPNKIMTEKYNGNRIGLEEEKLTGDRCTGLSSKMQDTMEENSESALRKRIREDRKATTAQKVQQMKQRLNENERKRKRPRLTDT
His tagged full-length PTPN1 protein, sequence (P18031 whole entry): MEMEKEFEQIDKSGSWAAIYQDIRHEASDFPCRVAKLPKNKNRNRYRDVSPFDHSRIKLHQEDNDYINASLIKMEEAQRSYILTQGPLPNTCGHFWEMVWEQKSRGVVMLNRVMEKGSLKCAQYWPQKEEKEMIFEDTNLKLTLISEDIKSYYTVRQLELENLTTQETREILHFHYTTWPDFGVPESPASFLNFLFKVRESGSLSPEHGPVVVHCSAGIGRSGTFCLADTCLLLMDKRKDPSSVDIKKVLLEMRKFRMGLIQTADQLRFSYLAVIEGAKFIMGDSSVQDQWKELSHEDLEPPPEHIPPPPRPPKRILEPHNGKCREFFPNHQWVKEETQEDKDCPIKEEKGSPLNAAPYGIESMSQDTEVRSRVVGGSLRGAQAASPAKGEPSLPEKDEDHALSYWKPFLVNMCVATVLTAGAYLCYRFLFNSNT

As usually defined, the IC50 is the concentration that inhibits the measured activity by half. The EC50 is the midpoint of the concentration-response curve. `O=C1CN(c2c(O)cc3c(c2F)C[C@H](CNCC2CC(c4ccccc4)C2)O3)S(=O)(=O)N1` (stereo partly drawn) [Compound 129, 5-[(2R)-4-fluoro-6-hydroxy-2-({[(3-phenylcyclobutyl)methyl]amino}methyl)-2,3-dihydro-1-benzofuran-5-yl]-1λ^6,2,5-thiadiazolidine-1,1,3-trione]: the IC50 in assay [1] is 10 to 100 nM; in assay [2] (setting [4]), 2.51 nM; in assay [2] (enzyme 0.5 nM, substrate 2 μM) it was less than 10 nM. Moreover, in assay [2], the “Dihydrobenzofuran or Indoline x-fold>potency biochemical” value turned out to be 3.3. The EC50 in assay [3] (setting [5]) and in assay [3] (setting [6]) was 1290 nM each time. Also, the “Dihydrobenzofuran or Indoline x-fold>potency cellular” value in assay [3] is listed as greater than 38.8.
On to `CC(C)CN(C)C[C@H]1Cc2c(cc(O)c(N3CC(=O)NS3(=O)=O)c2F)N1` [Compound 155, 5-[(2R)-4-fluoro-6-hydroxy-2-{[methyl(2-methylpropyl)amino]methyl}-2,3-dihydro-1H-indol-5-yl]-1λ^6,2,5-thiadiazolidine-1,1,3-trione], for which the IC50 in assay [1] lay within 10 to 100 nM; in assay [2] (enzyme 0.5 nM, substrate 2 μM) it was 10 to 100 nM. Moreover, the EC50 in assay [3] (setting [5]) amounted to 15700 nM.
Take `CCCC(C)NC[C@H]1Cc2c(cc(O)c(N3CC(=O)NS3(=O)=O)c2F)N1` (stereo partly drawn) [Compound 148, 5-[(2R)-4-fluoro-6-hydroxy-2-{[(pentan-2-yl)amino]methyl}-2,3-dihydro-1H-indol-5-yl]-1λ^6,2,5-thiadiazolidine-1,1,3-trione]: the IC50 in assay [1] was 10 to 100 nM; in assay [2] (enzyme 0.5 nM, substrate 2 μM), less than 10 nM. In addition, the EC50 in assay [3] (setting [5]) came out at 1850 nM.
Turning to `CC1=C(CCNC[C@H]2Cc3c(cc(O)c(N4CC(=O)NS4(=O)=O)c3F)O2)C(C)(C)CCC1` [Compound 128, 5-[(2R)-4-fluoro-6-hydroxy-2-({[2-(2,6,6-trimethylcyclohex-1-en-1-yl)ethyl]amino}methyl)-2,3-dihydro-1-benzofuran-5-yl]-1λ^6,2,5-thiadiazolidine-1,1,3-trione], the IC50 in assay [1] was 10 to 100 nM; in assay [2] (setting [4]), 1.81 nM; in assay [2] (enzyme 0.5 nM, substrate 2 μM), less than 10 nM. Moreover, in assay [2], the “Dihydrobenzofuran or Indoline x-fold>potency biochemical” value came out at 12.5. Further, the EC50 in assay [3] (setting [5]) and in assay [3] (setting [6]) was greater than 50000 nM in each case. In addition, the “Dihydrobenzofuran or Indoline x-fold>potency cellular” value in assay [3] is given as roughly 1.0.
Take `O=C1CN(c2c(O)cc3c(c2F)C[C@H](CO)N3)S(=O)(=O)N1` [Compound 151, 5-[(2R)-4-fluoro-6-hydroxy-2-(hydroxymethyl)-2,3-dihydro-1H-indol-5-yl]-1λ^6,2,5-thiadiazolidine-1,1,3-trione]: the IC50 in assay [1] lay in the range of 10 to 100 nM; in assay [2] (enzyme 0.5 nM, substrate 2 μM), 10 to 100 nM. The EC50 in assay [3] (setting [5]) turned out to be 2770 nM.
With `CC(C)CNCC1Cc2c(cc(O)c(N3CC(=O)NS3(=O)=O)c2F)O1` (stereo not drawn) [Compound 102, 5-(4-fluoro-6-hydroxy-2-{[(2-methylpropyl)amino]methyl}-2,3-dihydro-1-benzofuran-5-yl)-1λ^6,2,5-thiadiazolidine-1,1,3-trione], the IC50 in assay [1] was 10 to 100 nM; in assay [2] (enzyme 0.5 nM, substrate 2 μM), 10 to 100 nM. For the same compound, the EC50 in assay [3] (setting [5]) amounted to 3420 nM.
For `O=C1CN(c2c(O)cc3c(c2F)CC(CNCCCC(F)F)N3)S(=O)(=O)N1` (stereo not drawn) [Compound 145, 5-(2-{[(4,4-difluorobutyl)amino]methyl}-4-fluoro-6-hydroxy-2,3-dihydro-1H-indol-5-yl)-1λ^6,2,5-thiadiazolidine-1,1,3-trione], the IC50 in assay [1] was 10 to 100 nM; in assay [2] (enzyme 0.5 nM, substrate 2 μM), 10 to 100 nM. The EC50 in assay [3] (setting [5]) was 1970 nM.
Turning to `CCCCNC[C@H]1Cc2c(cc(O)c(N3CC(=O)NS3(=O)=O)c2F)O1` [Compound 111, 5-{(2R)-2-[(butylamino)methyl]-4-fluoro-6-hydroxy-2,3-dihydro-1-benzofuran-5-yl}-1λ^6,2,5-thiadiazolidine-1,1,3-trione], the IC50 in assay [1] was 10 to 100 nM; in assay [2] (enzyme 0.5 nM, substrate 2 μM), 10 to 100 nM. Further, in assay [3] (setting [5]), the EC50 came to 1110 nM.
On to `CC(C)(CO)CCNC[C@H]1Cc2c(cc(O)c(N3CC(=O)NS3(=O)=O)c2F)O1` [Compound 104, 5-[(2R)-4-fluoro-6-hydroxy-2-{[(4-hydroxy-3,3-dimethylbutyl)amino]methyl}-2,3-dihydro-1-benzofuran-5-yl]-1λ^6,2,5-thiadiazolidine-1,1,3-trione], for which the IC50 in assay [1] lay in the range of 10 to 100 nM; in assay [2] (enzyme 0.5 nM, substrate 2 μM) it was 10 to 100 nM. Besides, in assay [3] (setting [5]), the EC50 stood at 5110 nM.
As for `O=C1CN(c2c(O)cc3c(c2F)C[C@H](CNCC2CCC(C(F)(F)F)CC2)O3)S(=O)(=O)N1` (stereo partly drawn) [Compound 130, 5-{(2R)-4-fluoro-6-hydroxy-2-[({[4-(trifluoromethyl)cyclohexyl]methyl}amino)methyl]-2,3-dihydro-1-benzofuran-5-yl}-1λ^6,2,5-thiadiazolidine-1,1,3-trione], the IC50 is 10 to 100 nM in assay [1]; 4.38 nM in assay [2] (setting [4]); less than 10 nM in assay [2] (enzyme 0.5 nM, substrate 2 μM). Besides, in assay [2], the “Dihydrobenzofuran or Indoline x-fold>potency biochemical” value turned out to be 6.1. Moreover, the EC50 in assay [3] (setting [5]) and in assay [3] (setting [6]) was greater than 50000 nM each time. Also, the “Dihydrobenzofuran or Indoline x-fold>potency cellular” value in assay [3] was roughly 1.0.
With `O=C1CN(c2c(O)cc3c(c2F)C[C@H](CN(CC2CC2)CC2CC2)O3)S(=O)(=O)N1` [Compound 118, 5-[(2R)-2-{[bis(cyclopropylmethyl)amino]methyl}-4-fluoro-6-hydroxy-2,3-dihydro-1-benzofuran-5-yl]-1λ^6,2,5-thiadiazolidine-1,1,3-trione], the IC50 in assay [1] was 10 to 100 nM; in assay [2] (enzyme 0.5 nM, substrate 2 μM), 10 to 100 nM. Besides, in assay [3] (setting [5]), the EC50 turned out to be 20100 nM.
On to `CCCNC[C@H]1Cc2c(cc(O)c(N3CC(=O)NS3(=O)=O)c2F)O1` [Compound 109, 5-{(2R)-4-fluoro-6-hydroxy-2-[(propylamino)methyl]-2,3-dihydro-1-benzofuran-5-yl}-1λ^6,2,5-thiadiazolidine-1,1,3-trione], for which the IC50 is 10 to 100 nM in assay [1] and 10 to 100 nM in assay [2] (enzyme 0.5 nM, substrate 2 μM). For the same compound, the EC50 in assay [3] (setting [5]) came out at 1350 nM.
